Experimental data published in EPA's ToxRefDB 2.

What was measured:
[1] = system: rat; conditions: Carcinogenicity; fischer; Oral; Feed; dose end: 2 year; group: systemic; systemic / in life observation / body weight / body weight + systemic / pathology microscopic / kidney / hemosiderosis + systemic / …
[2] = system: mouse; conditions: Carcinogenicity; b6c3f1; Oral; Feed; dose end: 2 year; group: systemic; systemic / in life observation / body weight / body weight
[3] = system: rat; conditions: Chronic toxicity; sprague dawley; Oral; Feed; dose end: 78 week; group: systemic; systemic / clinical chemistry / glucose / glucose + systemic / in life observation / body weight / body weight gain + systemic / in life …
[4] = system: rat; conditions: Carcinogenicity; sprague dawley; Oral; Feed; dose end: 104 week; group: systemic; systemic / clinical chemistry / glucose / glucose + systemic / in life observation / body weight / body weight gain + systemic / in life …
[5] = system: rabbit; conditions: Prenatal developmental toxicity study; new zealand white; Oral; Gavage/Intubation; dose end: 19 GD; group: maternal; systemic / in life observation / body weight / body weight + systemic / in life observation / clinical signs / [other] + systemic / in life …
[6] = system: mouse; conditions: Developmental neurotoxicity study; other; Oral; [Not Specified]; dose end: 90 PND; group: cannot be grouped; systemic / in life observation / body weight / offspring (pup) weight gain + systemic / in life observation / clinical signs / convulsions
[7] = system: rat; conditions: Developmental neurotoxicity study; wistar; Injection; Subcutaneous; dose end: 42 PND; group: cannot be grouped; developmental / developmental malformation / general / crown-rump length + developmental / offspring survival late / [other] / [other] + …
[8] = system: rat; conditions: Developmental neurotoxicity study; wistar; Oral; Water; dose end: 60 PND; group: cannot be grouped; systemic / in life observation / body weight / offspring (pup) weight
[9] = system: rat; conditions: Developmental neurotoxicity study; wistar; Injection; Subcutaneous; dose end: 68 PND; group: cannot be grouped; developmental / offspring survival late / [other] / [other] + systemic / hematology / leukocyte (wbc) count differential / leukocyte (wbc…

SMILES: c1ccc(N=Nc2ccccc2)cc1 [Azobenzene]
- LEL [1]: 10 mg/kg/day
- LOAEL [1]: > 20 mg/kg/day
- NEL [1]: < 10 mg/kg/day
- NOAEL [1]: ≥ 20 mg/kg/day
- LEL [2]: 30 mg/kg/day
- LOAEL [2]: 81.8 mg/kg/day
- NEL [2]: < 30 mg/kg/day

SMILES: OC[C@H]1O[C@H](O[C@]2(CCl)O[C@H](CCl)[C@@H](O)[C@@H]2O)[C@H](O)[C@@H](O)[C@H]1Cl [Sucralose]
- LEL [3]: 150 mg/kg/day
- LOAEL [3]: > 15000 mg/kg/day
- NEL [3]: < 150 mg/kg/day
- NOAEL [3]: ≥ 15000 mg/kg/day
- LEL [4]: 150 mg/kg/day
- NEL [4]: < 150 mg/kg/day
- NOAEL [4]: ≥ 15000 mg/kg/day
- LEL [5]: 700 mg/kg/day
- LOAEL [5]: > 700 mg/kg/day
- NEL [5]: 350 mg/kg/day
- NOAEL [5]: ≥ 700 mg/kg/day

SMILES: N[C@@H](CCC(=O)O)C(=O)[O-].[Na+] [Sodium l-glutamate]
- LEL [6]: 2.5 mg/kg/day
- LOAEL [6]: > 4 mg/kg/day
- NEL [6]: < 2.5 mg/kg/day
- NOAEL [6]: ≥ 4 mg/kg/day
- LEL [7]: 0.004 mg/kg/day
- LOAEL [7]: > 0.004 mg/kg/day
- NEL [7]: < 0.004 mg/kg/day
- NOAEL [7]: ≥ 0.004 mg/kg/day
- LEL [8]: 10000 mg/kg/day
- NEL [8]: < 10000 mg/kg/day
- NOAEL [8]: ≥ 10000 mg/kg/day
- LOAEL [9]: > 4000 mg/kg/day
- NEL [9]: < 4000 mg/kg/day
- NOAEL [9]: ≥ 4000 mg/kg/day
